From ChEMBL document CHEMBL1250502, “An alignment independent 3D QSAR study of the antiproliferative activity of 1,2,4,5-tetraoxanes” (Eur J Med Chem, 2010)

Key:
[1] = Cytotoxicity against human Fem-X cells; assay type: functional, cell-based; conditions: for IC50: Homo sapiens, Fem-X; for pIC50: fem-x
HeLa = test: Cytotoxicity against human HeLa cells; assay type: functional, cell-based; conditions: for IC50: Homo sapiens, HeLa; for pIC50: hela

Row | SMILES | IC50 ([1]; read-out: pIC50 (converted)) [µM] | IC50 (HeLa; read-out: pIC50 (converted)) [µM] | IC50 ([1]; read-out: IC50) [µM] | IC50 (HeLa; read-out: IC50) [µM] | pIC50 [1] | pIC50 (HeLa)
1 | CCCNC(=O)CC[C@@H](C)[C@H]1CC[C@H]2[C@@H]3CC[C@@H]4CC5(CC[C@]4(C)[C@H]3C[C@H](OC(C)=O)[C@]12C)OOC1(CCCCC1)OO5 | 13.2 | 6.46 | – | – | – | –
2 | CN(C)CCNC(=O)C1CCC2(CC1)OOC1(CCCCC1)OO2 | 120 | 135 | – | – | – | –
3 | COC(=O)CC[C@@H](C)[C@H]1CC[C@H]2[C@@H]3CC[C@@H]4C[C@]5(CC[C@]4(C)[C@H]3C[C@H](OC(C)=O)[C@]12C)OO[C@]1(CC[C@@]2(C)[C@H](CC[C@@H]3[C@@H]2C[C@H](OC(C)=O)[C@]2(C)[C@@H]([C@H](C)CCC(=O)OC)CC[C@@H]32)C1)OO5 | 19.5 | 20.4 | – | – | – | –
4 | CC(=O)O[C@H]1C[C@H]2[C@@H](CC[C@@H]3CC4(CC[C@@]32C)OOC2(CCCCC2)OO4)[C@@H]2CC[C@H]([C@H](C)CCC(=O)N3CCCCC3)[C@@]12C | 9.12 | 7.24 | – | – | – | –
5 | CCC1CCC2(CC1)OOC1(CC[C@@]3(C)[C@H](CC[C@@H]4[C@@H]3C[C@H](OC(C)=O)[C@]3(C)[C@@H]([C@H](C)CCC(=O)NC)CC[C@@H]43)C1)OO2 (stereo partly specified) | 6.92 | 4.9 | 8.82 | 6.9 | – | –
6 | CCCNC(=O)CC[C@@H](C)[C@H]1CC[C@H]2[C@@H]3CC[C@@H]4C[C@]5(CC[C@]4(C)[C@H]3C[C@H](OC(C)=O)[C@]12C)OO[C@]1(CC[C@@]2(C)[C@H](CC[C@@H]3[C@@H]2C[C@H](OC(C)=O)[C@]2(C)[C@@H]([C@H](C)CCC(=O)NCCC)CC[C@@H]32)C1)OO5 | 25.7 | 8.32 | – | – | – | –
7 | COC(=O)CC[C@@H](C)[C@H]1CC[C@H]2[C@@H]3CC[C@@H]4CC5(CC[C@]4(C)[C@H]3C[C@H](OC(C)=O)[C@]12C)OOC1(CCC2(CCCC2)CC1)OO5 | 42.7 | 10.7 | – | – | – | –
8 | CC(=O)O[C@H]1C[C@H]2[C@@H](CC[C@@H]3CC4(CC[C@@]32C)OOC2(CCCCC2)OO4)[C@@H]2CC[C@H]([C@H](C)CCC(=O)O)[C@@]12C | 25.1 | 6.92 | – | – | – | –
9 | CCC1CCC2(CC1)OOC1(CC[C@@]3(C)[C@H](CC[C@@H]4[C@@H]3C[C@H](OC(C)=O)[C@]3(C)[C@@H]([C@H](C)CCC(N)=O)CC[C@@H]43)C1)OO2 (stereo partly specified) | 5.01 | 5.25 | 4.3 | 5.3 | – | –
10 | COC(=O)CC[C@@H](C)[C@H]1CC[C@H]2[C@@H]3CC[C@@H]4CC5(CC[C@]4(C)[C@H]3C[C@H](OC(C)=O)[C@]12C)OOC1(CCCCC1)OO5 | 52.5 | 18.6 | – | – | – | –
11 | CC(=O)O[C@H]1C[C@H]2[C@@H](CC[C@@H]3C[C@]4(CC[C@@]32C)OO[C@]2(CC[C@@]3(C)[C@H](CC[C@@H]5[C@@H]3C[C@H](OC(C)=O)[C@]3(C)[C@@H]([C@H](C)CCC(=O)O)CC[C@@H]53)C2)OO4)[C@@H]2CC[C@H]([C@H](C)CCC(=O)O)[C@@]12C | 7.59 | 9.12 | – | – | – | –
12 | CCC1CCC2(CC1)OOC1(CC[C@@]3(C)[C@H](CC[C@@H]4[C@@H]3C[C@H](OC(C)=O)[C@]3(C)[C@@H]([C@@H](C)CCC(N)=O)CC[C@@H]43)C1)OO2 (stereo partly specified) | 4.27 | 4.07 | 4.5 | 4.9 | – | –
13 | CCCNC(=O)C1CCC2(CC1)OOC1(CCCCC1)OO2 | 102 | 117 | – | – | – | –
14 | COC(=O)CC[C@@H](C)[C@H]1CC[C@H]2[C@@H]3CC[C@@H]4CC5(CC[C@]4(C)[C@H]3C[C@H](OC(C)=O)[C@]12C)OOC1(CCC(C)CC1)OO5 (stereo in doubt; 13) | – | – | – | – | 4.13 | 4.96
15 | CC(=O)O[C@H]1C[C@H]2[C@@H](CC[C@@H]3C[C@]4(CC[C@@]32C)OO[C@]2(CC[C@@]3(C)[C@H](CC[C@@H]5[C@@H]3C[C@H](OC(C)=O)[C@]3(C)[C@@H]([C@H](C)CCC(N)=O)CC[C@@H]53)C2)OO4)[C@@H]2CC[C@H]([C@H](C)CCC(N)=O)[C@@]12C | 6.17 | 6.03 | – | – | – | –
16 | CC(=O)O[C@H]1C[C@H]2[C@@H](CC[C@@H]3C[C@]4(CC[C@@]32C)OO[C@@]2(CC[C@@]3(C)[C@H](CC[C@@H]5[C@@H]3C[C@H](OC(C)=O)[C@]3(C)[C@@H]([C@H](C)CCC=O)CC[C@@H]53)C2)OO4)[C@@H]2CC[C@H]([C@H](C)CCC=O)[C@@]12C | 3.09 | 3.72 | – | – | – | –

Row | SMILES | IC50 ([1]; read-out: pIC50 (converted)) [µM] | IC50 (HeLa; read-out: pIC50 (converted)) [µM] | IC50 ([1]; read-out: IC50) [µM] | IC50 (HeLa; read-out: IC50) [µM] | pIC50 [1] | pIC50 (HeLa)
17 | O=C(O)C1CCC2(CC1)OOC1(CCCCC1)OO2 | 155 | 120 | – | – | – | –
18 | CCC1CCC2(CC1)OOC1(CC[C@@]3(C)[C@H](CC[C@@H]4[C@@H]3C[C@H](OC(C)=O)[C@]3(C)[C@@H]([C@@H](C)CCC(=O)NC)CC[C@@H]43)C1)OO2 (stereo partly specified) | 4.47 | 6.76 | 5 | 6.1 | – | –
19 | NC(=O)C1CCC2(CC1)OOC1(CCCCC1)OO2 | 120 | 115 | – | – | – | –
20 | CCNC(=O)CC[C@@H](C)[C@H]1CC[C@H]2[C@@H]3CC[C@@H]4CC5(CC[C@]4(C)[C@H]3C[C@H](OC(C)=O)[C@]12C)OOC1(CCC(CC)CC1)OO5 (stereo partly specified) | 6.76 | 6.92 | 7 | 6.7 | – | –
21 | CC(=O)O[C@H]1C[C@H]2[C@@H](CC[C@@H]3CC4(CC[C@@]32C)OOC2(CCCCC2)OO4)[C@@H]2CC[C@H]([C@H](C)CCC(N)=O)[C@@]12C | 6.03 | 5.25 | – | – | – | –
22 | COC(=O)CC[C@@H](C)[C@H]1CC[C@H]2[C@@H]3CC[C@@H]4CC5(CC[C@]4(C)[C@H]3C[C@H](OC(C)=O)[C@]12C)OOC1(CCC2(CCCCCCC2)CC1)OO5 | 51.3 | 10.2 | – | – | – | –
23 | CC(=O)O[C@H]1C[C@H]2[C@@H](CC[C@@H]3C[C@]4(CC[C@@]32C)OO[C@]2(CC[C@@]3(C)[C@H](CC[C@@H]5[C@@H]3C[C@H](OC(C)=O)[C@]3(C)[C@@H]([C@H](C)CCC(=O)N6CCCCC6)CC[C@@H]53)C2)OO4)[C@@H]2CC[C@H]([C@H](C)CCC(=O)N3CCCCC3)[C@@]12C | 102 | 120 | – | – | – | –
24 | CC(=O)O[C@H]1C[C@H]2[C@@H](CC[C@@H]3C[C@]4(CC[C@@]32C)OO[C@@]2(CC[C@@]3(C)[C@H](CC[C@@H]5[C@@H]3C[C@H](OC(C)=O)[C@]3(C)[C@@H]([C@H](C)CCC(=O)N6CCCCC6)CC[C@@H]53)C2)OO4)[C@@H]2CC[C@H]([C@H](C)CCC(=O)N3CCCCC3)[C@@]12C | 79.4 | 89.1 | – | – | – | –
25 | CC(=O)O[C@H]1C[C@H]2[C@@H](CC[C@@H]3C[C@]4(CC[C@@]32C)OO[C@@]2(CC[C@@]3(C)[C@H](CC[C@@H]5[C@@H]3C[C@H](OC(C)=O)[C@]3(C)[C@@H]([C@H](C)CCC(=O)O)CC[C@@H]53)C2)OO4)[C@@H]2CC[C@H]([C@H](C)CCC(=O)O)[C@@]12C | 4.17 | 5.25 | – | – | – | –
26 | CCCN(CCC)C(=O)CC[C@@H](C)[C@H]1CC[C@H]2[C@@H]3CC[C@@H]4C[C@]5(CC[C@]4(C)[C@H]3C[C@H](OC(C)=O)[C@]12C)OO[C@@]1(CC[C@@]2(C)[C@H](CC[C@@H]3[C@@H]2C[C@H](OC(C)=O)[C@]2(C)[C@@H]([C@H](C)CCC(=O)N(CCC)CCC)CC[C@@H]32)C1)OO5 | 47.9 | 105 | – | – | – | –
27 | CCNC(=O)CC[C@H](C)[C@H]1CC[C@H]2[C@@H]3CC[C@@H]4CC5(CC[C@]4(C)[C@H]3C[C@H](OC(C)=O)[C@]12C)OOC1(CCC(CC)CC1)OO5 (stereo partly specified) | 8.91 | 6.92 | 6.7 | 6.9 | – | –
28 | COC(=O)CC[C@@H](C)[C@H]1CC[C@H]2[C@@H]3CC[C@@H]4CC5(CC[C@]4(C)[C@H]3C[C@H](OC(C)=O)[C@]12C)OOC1(CCC(C)CC1)OO5 (stereo in doubt; 14) | – | – | – | – | 4.6 | 5.3
29 | COC(=O)CNC(=O)CC[C@@H](C)[C@H]1CC[C@H]2[C@@H]3CC[C@@H]4C[C@]5(CC[C@]4(C)[C@H]3C[C@H](OC(C)=O)[C@]12C)OO[C@]1(CC[C@@]2(C)[C@H](CC[C@@H]3[C@@H]2C[C@H](OC(C)=O)[C@]2(C)[C@@H]([C@H](C)CCC(=O)NCC(=O)OC)CC[C@@H]32)C1)OO5 | 4.68 | 3.63 | – | – | – | –
30 | CCCNC(=O)CC[C@@H](C)[C@H]1CC[C@H]2[C@@H]3CC[C@@H]4C[C@]5(CC[C@]4(C)[C@H]3C[C@H](OC(C)=O)[C@]12C)OO[C@@]1(CC[C@@]2(C)[C@H](CC[C@@H]3[C@@H]2C[C@H](OC(C)=O)[C@]2(C)[C@@H]([C@H](C)CCC(=O)NCCC)CC[C@@H]32)C1)OO5 | 22.9 | 33.1 | – | – | – | –
31 | CCCN(CCC)C(=O)CC[C@@H](C)[C@H]1CC[C@H]2[C@@H]3CC[C@@H]4CC5(CC[C@]4(C)[C@H]3C[C@H](OC(C)=O)[C@]12C)OOC1(CCCCC1)OO5 | 38.9 | 28.2 | – | – | – | –
32 | COC(=O)C1CCC2(CC1)OOC1(CCCCC1)OO2 | 72.4 | 75.9 | – | – | – | –
